Laboratory results taken from patent publication US7737169B2, “Anionically substituted 7-nitroindoline derivatives and their uses” (Medical Research Council, priority 2005, dated 2010).

Tests used:
GABA channels = experiment: photolytic release of GABA onto neuronal cells, current responses (FIG. 1); format: cell-based
Text: FIG. 1. Current responses to photolytic release of GABA from various concentrations of 6 onto two different neuronal cells, as specified in the FIGURE. The experimental set-up and protocol was as described in reference 4.
A previous evaluation of nitroindoline-caged amino acids in neural tissue has been published^4. […] Tests described here were to assess the photolytic efficiency of GABA release in a neurophysiological experiment with particular attention to point (3), namely the presence or absence of interference of the new caged GABA with GABA-activated channels. If interference is low the expectation is that the rise-time of the receptor activation by photoreleased GABA in the presence of high cage concentration should be similar to that generated by endogenously released GABA, rising in 1-2 ms.

GABA receptors = settings: caged ester before photolysis; cited from earlier work

SMILES: NCCCC(=O)N1CCc2c(OC(COP(=O)(O)O)COP(=O)(O)O)ccc([N+](=O)[O-])c21 [Compound 6, 1-(4-Aminobutanoyl)-4-[1,3-bis(dihydroxyphosphoryloxy)propan-2-yloxy]-7-nitroindoline]
- rise-time of current through GABA channels (GABA channels; 0.5 mM GABA released, 1.5 mM caged GABA present, FIG. 1 left panel): 1 ms
- amplitude and rate of rise of currents through GABA channels (GABA channels; 20-200 μm GABA released by different photolysis intensities, 1.4 mM caged GABA present, FIG. 1 right panel): increasing amplitudes and rates of rise at high concentration

SMILES: NCCCC(=O)OC(C(=O)O)c1ccccc1[N+](=O)[O-] (stereo not drawn) [Compound 5, α-carboxy-2-nitrobenzyl ester of GABA]
- pharmacological effects (GABA receptors): no pharmacological effects
